# Experimental data taken from ChEMBL document CHEMBL3045835, “Comparative study of conventional and microwave-assisted synthesis of some Schiff bases and their potential as antimicrobial agents” (2012).
# Experiments:
# Format in all cases: functional
# Penicillium chrysogenum [1] = assay: Antifungal activity against Penicillium chrysogenum MTCC 161 at 500 ug/ml after 18 hr by cup-plate method; settings: MTCC 161, 18 h, read-out: DIZ
# Penicillium chrysogenum [2] = assay: Antifungal activity against Penicillium chrysogenum MTCC 161 after 24 hr by broth dilution method; settings: MTCC 161, 24 h
# Bacillus pumilus [3] = assay: Antibacterial activity against Bacillus pumilus MTCC 1456 at 100 ug/ml after 18 hr by cup-plate method; settings: MTCC 1456, 18 h, read-out: DIZ
# Penicillium chrysogenum [4] = assay: Antifungal activity against Penicillium chrysogenum MTCC 161 at 200 ug/ml after 18 hr by cup-plate method; settings: MTCC 161, 18 h, read-out: DIZ
# Bacillus pumilus [5] = assay: Antibacterial activity against Bacillus pumilus MTCC 1456 at 200 ug/ml after 18 hr by cup-plate method; settings: MTCC 1456, 18 h, read-out: DIZ
# Bacillus subtilis [6] = assay: Antibacterial activity against Bacillus subtilis MTCC 441 after 24 hr by broth dilution method; settings: MTCC 441, 24 h
# Pseudomonas fluorescens [7] = assay: Antibacterial activity against Pseudomonas fluorescens MTCC 2421 at 500 ug/ml after 18 hr by cup-plate method; settings: MTCC 2421, 18 h, read-out: DIZ
# Pseudomonas aeruginosa [8] = assay: Antibacterial activity against Pseudomonas aeruginosa MTCC 424 at 200 ug/ml after 18 hr by cup-plate method; settings: MTCC 424, 18 h, read-out: DIZ
# Escherichia coli [9] = assay: Antibacterial activity against Escherichia coli MTCC 1573 at 1500 ug/ml after 18 hr by cup-plate method; settings: MTCC 1573, 18 h, read-out: DIZ
# Staphylococcus aureus [10] = assay: Antibacterial activity against Staphylococcus aureus MTCC 1430 at 100 ug/ml after 18 hr by cup-plate method; settings: MTCC 1430, 18 h, read-out: DIZ
# Aspergillus niger [11] = assay: Antifungal activity against Aspergillus niger MTCC 2546 at 1500 ug/ml after 18 hr by cup-plate method; settings: MTCC 2546, 18 h, read-out: DIZ
# Penicillium chrysogenum [12] = assay: Antifungal activity against Penicillium chrysogenum MTCC 161 at 1500 ug/ml after 18 hr by cup-plate method; settings: MTCC 161, 18 h, read-out: DIZ
# Bacillus subtilis [13] = assay: Antibacterial activity against Bacillus subtilis MTCC 441 at 1000 ug/ml after 18 hr by cup plate method; settings: MTCC 441, 18 h, read-out: DIZ
# Bacillus subtilis [14] = assay: Antibacterial activity against Bacillus subtilis MTCC 441 at 500 ug/ml after 18 hr by cup plate method; settings: MTCC 441, 18 h, read-out: DIZ
# Micrococcus luteus [15] = assay: Antibacterial activity against Micrococcus luteus MTCC 1538 at 100 ug/ml after 18 hr by cup-plate method; settings: MTCC 1538, 18 h, read-out: DIZ
# Penicillium chrysogenum [16] = assay: Antifungal activity against Penicillium chrysogenum MTCC 161 at 100 ug/ml after 18 hr by cup-plate method; settings: MTCC 161, 18 h, read-out: DIZ
# Pseudomonas fluorescens [17] = assay: Antibacterial activity against Pseudomonas fluorescens MTCC 2421 after 24 hr by broth dilution method; settings: MTCC 2421, 24 h
# Staphylococcus aureus [18] = assay: Antibacterial activity against Staphylococcus aureus MTCC 1430 at 200 ug/ml after 18 hr by cup-plate method; settings: MTCC 1430, 18 h, read-out: DIZ
# Escherichia coli [19] = assay: Antibacterial activity against Escherichia coli MTCC 1573 at 200 ug/ml after 18 hr by cup-plate method; settings: MTCC 1573, 18 h, read-out: DIZ
# Bacillus subtilis [20] = assay: Antibacterial activity against Bacillus subtilis MTCC 441 at 100 ug/ml after 18 hr by cup plate method; settings: MTCC 441, 18 h, read-out: DIZ
# Pseudomonas fluorescens [21] = assay: Antibacterial activity against Pseudomonas fluorescens MTCC 2421 at 1000 ug/ml after 18 hr by cup-plate method; settings: MTCC 2421, 18 h, read-out: DIZ
# Pseudomonas fluorescens [22] = assay: Antibacterial activity against Pseudomonas fluorescens MTCC 2421 at 1500 ug/ml after 18 hr by cup-plate method; settings: MTCC 2421, 18 h, read-out: DIZ
# Bacillus subtilis [23] = assay: Antibacterial activity against Bacillus subtilis MTCC 441 at 1500 ug/ml after 18 hr by cup plate method; settings: MTCC 441, 18 h, read-out: DIZ
# Staphylococcus aureus [24] = assay: Antibacterial activity against Staphylococcus aureus MTCC 1430 at 1500 ug/ml after 18 hr by cup-plate method; settings: MTCC 1430, 18 h, read-out: DIZ
# Pseudomonas aeruginosa [25] = assay: Antibacterial activity against Pseudomonas aeruginosa MTCC 424 at 1000 ug/ml after 18 hr by cup-plate method; settings: MTCC 424, 18 h, read-out: DIZ
# Micrococcus luteus [26] = assay: Antibacterial activity against Micrococcus luteus MTCC 1538 after 24 hr by broth dilution method; settings: MTCC 1538, 24 h
# Aspergillus niger [27] = assay: Antifungal activity against Aspergillus niger MTCC 2546 at 1000 ug/ml after 18 hr by cup-plate method; settings: MTCC 2546, 18 h, read-out: DIZ
smiles,measurement,setting,value
Cc1cccnc1/N=C/c1cccc2ccccc12,zone of inhibition at 500 µg/mL,Penicillium chrysogenum [1],15 mm
same,MIC,Penicillium chrysogenum [2],400 mg/L
same,zone of inhibition at 100 µg/mL,Bacillus pumilus [3],13 mm
same,zone of inhibition at 200 µg/mL,Penicillium chrysogenum [4],13 mm
same,zone of inhibition at 200 µg/mL,Bacillus pumilus [5],16 mm
same,MIC,Bacillus subtilis [6],50 mg/L
same,zone of inhibition at 500 µg/mL,Pseudomonas fluorescens [7],22 mm
same,zone of inhibition at 200 µg/mL,Pseudomonas aeruginosa [8],13 mm
same,zone of inhibition at 1500 µg/mL,Escherichia coli [9],19 mm
same,zone of inhibition at 100 µg/mL,Staphylococcus aureus [10],10 mm
same,zone of inhibition at 1500 µg/mL,Aspergillus niger [11],21 mm
same,zone of inhibition at 1500 µg/mL,Penicillium chrysogenum [12],18 mm
same,zone of inhibition at 1000 µg/mL,Bacillus subtilis [13],18 mm
same,zone of inhibition at 500 µg/mL,Bacillus subtilis [14],16 mm
same,zone of inhibition at 100 µg/mL,Micrococcus luteus [15],16 mm
same,zone of inhibition at 100 µg/mL,Penicillium chrysogenum [16],11 mm
same,MIC,Pseudomonas fluorescens [17],300 mg/L
same,zone of inhibition at 200 µg/mL,Staphylococcus aureus [18],13 mm
same,zone of inhibition at 200 µg/mL,Escherichia coli [19],14 mm
same,zone of inhibition at 100 µg/mL,Bacillus subtilis [20],12 mm
same,zone of inhibition at 1000 µg/mL,Pseudomonas fluorescens [21],23 mm
same,zone of inhibition at 1500 µg/mL,Pseudomonas fluorescens [22],24 mm
same,zone of inhibition at 1500 µg/mL,Bacillus subtilis [23],19 mm
same,zone of inhibition at 1500 µg/mL,Staphylococcus aureus [24],20 mm
same,zone of inhibition at 1000 µg/mL,Pseudomonas aeruginosa [25],16 mm
same,MIC,Micrococcus luteus [26],200 mg/L
same,zone of inhibition at 1000 µg/mL,Aspergillus niger [27],20 mm
